For 5 compounds, IC50 results are on record in US20250154105A1, “POLYCYCLIC COMPOUND AND USE THEREOF” (TYK MEDICINES, INC., priority 2021, published 2025).

Where only a bound is given, the exact number is not on record here.

The test has as its system YAP-TEAD. The test can be described thus: YAP-TEAD inhibitor activity by Nano luciferase method (8xGTiiC-nLuc reporter in 293T cells). The format is cell-based. The settings on record: Homo sapiens, HEK-293T, 48 hours incubation, read-out: Nano-luciferase detection (IC50). A digest of the protocol:
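IC50 derived from nLuc reporter signal normalised to 0 nM wells, after 48 h, 37 °C compound exposure (1:3.16 series, highest 10,000 nM). Cells: 293T transfected with 8xGTiiC-nLuc/CMV-fLuc plasmid, plated at 2000 per well.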
The term IC50 denotes the concentration at which inhibition is half-maximal. As to `CNS(=O)(=O)c1ccc2c(c1)c1cn(C)nc1c(=O)n2-c1ccc(C(F)(F)F)cc1` [Example T-32], the IC50 is ≤ 1000 nM.

Turning to `C[C@H](NC(=O)c1ccc2c(c1)c1nn(C)cc1c(=O)n2-c1ccc(C(F)(F)F)cc1)c1ccccn1` [Example T-105], the IC50 was ≤ 1000 nM. `C[C@H](NC(=O)c1ccc2c(c1)c1cnccc1c(=O)n2-c1ccc(C(F)(F)F)cc1)c1ccccn1` [Example T-253]: the IC50 is ≤ 1000 nM.

Take `C[C@H](NC(=O)c1ccc2c(c1)c1ccccc1c(=O)n2-c1ccc(C(F)(F)F)cc1)c1ccccn1` [Example T-272]: the IC50 was ≤ 1000 nM.

In the case of `Cc1cc(=O)n(-c2ccc(C(F)(F)F)cc2)c2ccc(C(=O)N[C@@H](C)c3ccccn3)cc12` [Example T-277], the IC50 is ≤ 1000 nM.
